In US10953015B2, “Use of adenosine receptor signaling to regulate P-gp function” (CORNELL UNIVERSITY, priority 2016, dated 2021):

Key:
[1] = test system: BCRP1/ABCG2; experiment: BCRP1 expression in brain of WT mice (western blot); assay type: in vivo, mouse
[2] = test system: P-gp; experiment: P-gp expression in brain of WT mice (western blot, IFA of frozen section); assay type: in vivo, mouse
Protocol: (§1) HCMEC-D3 and HBMVEC cells were plated in 12-well plates and were grown until they reached 100% confluency. The media was replaced with fresh media containing 1 μM of Lexiscan® or NECA with proper vehicle control (DMSO) for up to 72 hours. Cells were lysed by lysis buffer […] containing protease inhibitor cocktail and stored for later use (−70° C.). For cytoskeletal fraction analysis, cells were lysed in CSK buffer (100 mM NaCl, 300 mM sucrose, 3 mM MgCl2, 10 mM PIPES, pH 6.8). For brain samples, half of the brain was homogenized and lysed with […] lysis buffer and centrifuged at 17,000 g for 20 minutes and 1:10 diluted samples were used for analysis. Sample was loaded on 7% SDS PAGE at 100 V for 1 hour and transferred to the nitrocellulose paper. It was blocked with 1% BSA and incubated with anti-P-gp antibody (Genetex, 1:2000) overnight. Subsequently, it was washed with TBST and incubated with anti-rabbit secondary antibody (1:2000) for 1 hour. It was washed with TBST and developed with ECL substrate and exposed to x-ray film. Anti-GAPDH or −β-actin antibody was used as loading control. The intensity of band was analyzed with densitometric analysis and plotted as a graph for analysis of time-course effect of AR signaling on P-gp expression.
Mice were treated with Lexiscan® or NECA at different time points and were infused with ice-cold PBS and sacrificed. Half of the brain was cut and put in the cassette and filled with OCT solution. Samples were snap-frozen with liquid nitrogen, cut with cryostat (10 μm) and fixed with acetone for 5 minutes, and incubated with C219 for P-gp stain (1:100) and Glut1 for endothelial cell marker (1:100) at 4° C. overnight. Sections were washed with PBS and additionally stained with secondary antibody conjugated with fluorochrome. Full images of the brain sections were visualized and recorded using Aperio Scan Scope (Leica Biosystems).

[3] = test system: MMP9; experiment: MMP9 in mouse brain endothelial cells after intravenous injection (IFA); assay type: in vivo; settings: 0.05 mg/kg i.v.; 5 minutes
Protocol: Vehicle control (DMSO) or 0.05 mg/kg of Lexiscan® was injected intravenously into mice. Five minutes later, mice were sacrificed and frozen sections of the brain were stained with anti-MMP9 (red) or anti-GLUT-1 (green) antibodies. Nucleus was counterstained with DAPI (blue). The scale bar indicates 50 μm.

[4] = test system: P-gp; experiment: Western blot of P-gp expression in primary human brain endothelial cells; assay type: cell-based; settings: 1 μM, up to 72 hours
Protocol: as §1

[5] = molecular target: T1, P-gp (Mus musculus, UniProt P21447); experiment: Epirubicin brain accumulation assay; assay type: in vivo; settings: mice
T1 construct: down-modulation of P-gp expression and function in brain vascular endothelial cells in WT mice; from tissue; host or cells: brain of WT mice
T1 sequence (P21447 whole entry): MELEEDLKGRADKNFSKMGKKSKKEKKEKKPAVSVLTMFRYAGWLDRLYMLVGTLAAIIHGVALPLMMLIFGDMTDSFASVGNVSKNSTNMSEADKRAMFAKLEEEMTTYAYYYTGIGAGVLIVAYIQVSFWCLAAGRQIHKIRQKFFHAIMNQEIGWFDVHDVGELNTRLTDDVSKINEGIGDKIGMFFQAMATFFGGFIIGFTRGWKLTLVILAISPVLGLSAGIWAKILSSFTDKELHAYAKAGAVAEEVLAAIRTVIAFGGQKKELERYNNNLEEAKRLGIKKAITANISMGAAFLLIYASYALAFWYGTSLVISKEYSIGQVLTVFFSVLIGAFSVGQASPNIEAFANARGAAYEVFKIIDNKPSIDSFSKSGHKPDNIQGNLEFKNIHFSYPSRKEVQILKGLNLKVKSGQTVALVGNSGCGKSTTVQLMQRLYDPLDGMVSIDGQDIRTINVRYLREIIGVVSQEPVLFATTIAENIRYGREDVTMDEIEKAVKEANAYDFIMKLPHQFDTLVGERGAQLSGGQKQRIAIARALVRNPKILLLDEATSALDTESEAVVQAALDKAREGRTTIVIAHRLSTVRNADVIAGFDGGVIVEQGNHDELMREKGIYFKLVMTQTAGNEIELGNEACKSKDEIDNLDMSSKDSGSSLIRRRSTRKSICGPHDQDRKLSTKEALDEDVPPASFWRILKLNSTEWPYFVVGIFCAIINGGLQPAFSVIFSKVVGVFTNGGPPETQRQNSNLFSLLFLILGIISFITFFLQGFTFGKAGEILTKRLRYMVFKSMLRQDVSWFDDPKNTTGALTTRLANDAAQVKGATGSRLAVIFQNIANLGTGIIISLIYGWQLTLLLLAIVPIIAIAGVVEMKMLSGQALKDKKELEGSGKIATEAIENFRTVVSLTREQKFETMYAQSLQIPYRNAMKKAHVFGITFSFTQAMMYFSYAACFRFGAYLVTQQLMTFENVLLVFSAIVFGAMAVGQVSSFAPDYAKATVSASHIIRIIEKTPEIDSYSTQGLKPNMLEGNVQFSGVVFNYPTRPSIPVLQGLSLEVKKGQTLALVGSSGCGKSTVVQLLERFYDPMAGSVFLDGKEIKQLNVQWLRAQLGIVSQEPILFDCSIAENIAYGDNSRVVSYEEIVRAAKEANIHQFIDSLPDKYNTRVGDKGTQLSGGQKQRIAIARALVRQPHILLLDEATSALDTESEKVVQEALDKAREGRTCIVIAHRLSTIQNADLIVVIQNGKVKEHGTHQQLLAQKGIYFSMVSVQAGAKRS
Protocol: FIG. 12A is a fluorescence microscopy image showing immunofluorescence images of brains from Lexiscan®-treated mice of WT brain at 15 and 30 minutes after Lexiscan® treatment. Frozen brain sections were stained with GLUT1 (red), or P-gp (green) and counterstained with DAPI (blue). FIG. 12B is a fluorescence microscopy image showing an enlarged image of FIG. 12A. FIG. 12C is a graph summarizing the experimental results of a brain epirubicin accumulation assay in the Lexiscan®- and vehicle-treated (control) mice. Briefly, 10 mg/kg of epirubicin was injected intravenously with or without 0.05 mg/kg of Lexiscan®. Mice were perfused with ice-cold PBS and sacrificed at different time points. The accumulation of epirubicin in the brain was measured using fluorometric excitation at 488 nm and emission at 590 nm. *P<0.05 (n=4, 2-tailed Student's t test). FIG. 12D are fluorescence microscopy images showing fluorescent microscopic analysis of epirubicin accumulation in the brains of mice treated with Lexiscan® or PSC833 (a functional P-gp inhibitor) compared with vehicle (control). 10 mg/kg of epirubicin was injected intravenously with or without 0.05 mg/kg of Lexiscan® or 50 mg/kg of PSC833 for 15 minutes. Mice were perfused with ice-cold PBS and sacrificed. Brain was sectioned for microscopic analysis for full-brain image, and focal zoomed image from cortex was laid as an inset. Epirubicin is in red, and nucleus was counterstained with DAPI (blue). FIG. 12E are graphs showing the quantified intensity of epirubicin from different regions of cortex (CTX), cerebellum (CRBL), and hippocampus (HPC) from brains of control, Lexiscan®-, or PSC833-injected animals and depicted as graphs. The scale bars indicate 100 μm in FIG. 12A; 50 μm in FIG. 12B, and 5 mm in FIG. 12D). ***P<0.001 (n=50, 2-tailed Student's t test).
FIG. 14A is a western blot of P-gp and BCRP1 from mouse brain at 2 and 18 hours after NECA treatment. FIG. 14B are graphs showing the enumeration of the expression intensity of P-gp and BCRP1 from the western blots shown in FIG. 14A. The intensity of the bands from NECA treatment group was divided by that of DMSO control. […] For fluorescence microscopy, frozen brain sections were stained with GLUT1 (red) or P-gp (green) and counterstained with DAPI (blue). […] The accumulation of epirubicin in the brain was measured using fluorometry, with excitation at 488 nm and emission at 590 nm. *P<0.05 (n=4, 2-tailed Student's t test).
For Lexiscan® study, 10 mg/kg of epirubicin was injected with or without Lexiscan® (0.05 mg/kg) at different time points, and mice were sacrificed. […] Samples were spun down at 17,000 g for 30 minutes, and the concentration for epirubicin was analyzed with fluorimetry with […].

[6] = Lexiscan® treatment, 5 to 60 minutes

| SMILES | Time at which effect on BCRP occurred [1] [min] | BCRP expression in brain [1, 6] | Time at which effect on P-gp occurred [2] [min] | P-gp expression in brain endothelial cells [2, 6] | MMP9 in mouse brain endothelial cells [3] | P-gp expression (western blot, vs DMSO control) [4] | Epirubicin fluorescent intensity in brain sections (cortex, cerebellum, hippocampus) ([5]; 10 mg/kg epirubicin i.v. with 0.05 mg/kg Lexiscan® or 50 mg/kg PSC833 for 15 minutes) | Epirubicin accumulation in the brain (fluorometry) ([5]; 10 mg/kg epirubicin i.v. with 0.05 mg/kg Lexiscan®, different time points) | BCRP expression level in brain ([1]; 2 and 18 hours after NECA) | P-gp expression level in brain ([2]; 2 and 18 hours after NECA) | Epirubicin accumulation in the brain (fluorometry) ([5]; 0.08 mg/kg NECA i.v., then 10 mg/kg epirubicin i.v. for 15 minutes) |
| --- | --- | --- | --- | --- | --- | --- | --- | --- | --- | --- | --- |
| CNC(=O)c1cnn(-c2nc(N)c3ncn([C@@H]4O[C@H](CO)[C@@H](O)[C@H]4O)c3n2)c1 [Lexiscan®, 1-[6-amino-9-[(2R,3R,4S,5R)-3,4-dihydroxy-5-(hydroxymethyl)oxolan-2-yl]purin-2-yl]-N-methylpyrazole-4-carboxamide] | 15 | potently down-regulated BCRP expression by 15 minutes, after which its expression began to recover by 60 minutes | ≤ 5 | decreased P-gp expression in brain endothelial cells in WT mice between 5 and 15 minutes; this was recovered by 30 minutes | rapid increase of MMP9 | rapid down-modulation of P-gp expression, which began to decrease at 15 minutes and was maintained at a decreased level for up to 4 hours | Significant epirubicin intensity in the cerebral cortex, the cerebellum, and the hippocampus | began to increase at 5 minutes; this was maintained up to 30 minutes and returned to baseline by 60 minutes |  |  |  |
| CCNC(=O)[C@H]1O[C@@H](n2cnc3c(N)ncnc32)[C@H](O)[C@@H]1O [NECA, (2S,3S,4R,5R)-5-(6-aminopurin-9-yl)-N-ethyl-3,4-dihydroxyoxolane-2-carboxamide] |  |  |  |  |  | began to decrease at 30 minutes and was maintained for up to 48 hours and recovered by 72 hours |  |  | not significantly affected | gradual decrease in P-gp expression level, beginning at 2 hours; this was maintained for up to 18 hours | showed epirubicin accumulation in the brain that matched the kinetics of P-gp decrease |
